Experimental data taken from patent publication US20140073505A1, “HERBICIDAL COMPOSITIONS COMPRISING AMINOPYRALID AND TRICLOPYR” (DOW AGROSCIENCES LLC, priority 2012, published 2014).
Structures can show the parent of a compound that is named as a salt.

How the values were obtained:
Assay type in all cases: in vivo
[1] = tested on: Urtica dioica L. (common nettle, URTDI); test: Postemergence herbicidal activity under field conditions in pastures, visual weed control
Method: (§1) These trials were conducted under field conditions in Ibague, Colombia; Geisenbrunn, Germany; and Montarges, France. Trial sites were located in commercially grown fields of common rice (Oryza sativa) or permanent pastures. The rice and pasture crops were grown using normal cultural practices for fertilization, seeding, and maintenance to ensure good growth of the crop and the weeds. The trials were conducted using normal research methodology. Trial plots were 2-3 meters (m) wide by 6 m long. All treatments were applied using a randomized complete block trial design with 3 to 4 replications per treatment. The trial sites had naturally occurring populations of weeds. The weed spectrum included, but was not limited to, Cyperus iria L. (rice flatsedge, CYPIR), Eclipta prostrata (L.) L. (eclipta, ECLAL), Ludwigia linifolia (ludwigia, LUDLI), Taraxacum officinale G. H. Weber ex Wiggers (dandelion, TAROF), Rumex obtusifolius L. (broadleaf dock, RUMOB) and Urtica dioica L. (common nettle, URTDI). The plots were treated with a postemergence foliar application 15 to 20 days after emergence of the rice or during the normal timing of herbicide application used for weed control in pastures/grasslands.
(§2) Treatments consisted of tank mixes of commercially available formulations of aminopyralid triisopropanolammonium salt (MILESTONE 240SL), triclopyr butotyl (GARLON4 480EC) and an experimental formulation of the aminopyralid potassium salt (GF-389), with all rice treatments tankmixed with adjuvant (CARRIER 80EC) at 0.5% volume per volume (vol/vol) but no adjuvant was used in any of the pasture treatments. The application volume was 200 liters per hectare (L/ha) of water. All applications were made using precision gas hand sprayers using a 2 m boom using flat fan (8002) nozzles to broadcast the treatments over the top of the target crop (rice and pastures) and weeds.
(§3) The treated plots and control plots were rated blind at various intervals after application. Ratings were based of Percent (%) Visual weed control, where 0 corresponds to no injury and 100 corresponds to complete kill.
(§4) Colby's equation was used to determine the herbicidal effects expected from the mixtures (Colby, S. R. Calculation of the synergistic and antagonistic response of herbicide combinations. Weeds 1967 15, 20-22).
(§5) The following equation was used to calculate the expected activity of mixtures containing two active ingredients, A and B:
(§6) A=observed efficacy of active ingredient A at the same concentration as used in the mixture;
(§7) B=observed efficacy of active ingredient B at the same concentration as used in the mixture.

[2] = tested on: Taraxacum officinale G. H. Weber ex Wiggers (dandelion, TAROF); test: as above; details: for Visual Weed Control (%) TAROF 178 DAA Obs: first 178 DAA column; for Visual Weed Control (%) TAROFI 178 DAA Obs: second 178 DAA column
Method: as §1, §2, §3, §4, §5, §6, §7

[3] = tested on: Rumex obtusifolius L. (broadleaf dock, RUMOB); test: as above
Method: as §1, §2, §3, §4, §5, §6, §7

[4] = tested on: Cyperus iria L. (rice flatsedge, CYPIR); test: Postemergence herbicidal activity under field conditions in rice, visual weed control
Method: as §1, §2, §3, §4, §5, §6, §7

[5] = tested on: Ludwigia linifolia (ludwigia, LUDLI); test: as above
Method: as §1, §2, §3, §4, §5, §6, §7

[6] = tested on: Eclipta prostrata (L.) L. (eclipta, ECLAL); test: as above
Method: as §1, §2, §3, §4, §5, §6, §7

Nc1cc(Cl)nc(C(=O)O)c1Cl [Aminopyralid potassium salt, 4-amino-3,6-dichloro-2-pyridinecarboxylic acid]
Visual Weed Control (%) URTDI 342 DAA Obs ([1]; aminopyralid 60 g ae/ha alone): 17% | Visual Weed Control (%) TAROF 13 DAA Obs ([2]; first TAROF column, aminopyralid 60 g ae/ha alone): 57% | Visual Weed Control (%) TAROF 13 DAA Obs ([2]; second TAROF column, aminopyralid 60 g ae/ha alone): 45% | Visual Weed Control (%) TAROF 122 DAA Obs ([2]; aminopyralid 60 g ae/ha alone): 80% | Visual Weed Control (%) TAROF 178 DAA Obs ([2]; aminopyralid 60 g ae/ha alone): 73% | Visual Weed Control (%) TAROFI 178 DAA Obs ([2]; aminopyralid 60 g ae/ha alone): 73% | Visual Weed Control (%) TAROF 378 DAA Obs ([2]; 378 DAA, first TAROF column, aminopyralid 60 g ae/ha alone): 40% | Visual Weed Control (%) TAROF 378 DAA Obs ([2]; 378 DAA, second TAROF column, aminopyralid 60 g ae/ha alone): 40% | Visual Weed Control (%) RUMOB 13 DAA Obs ([3]; aminopyralid 60 g ae/ha alone): 82%

Nc1cc(Cl)nc(C(=O)O)c1Cl [Aminopyralid triisopropanolammonium salt, 4-amino-3,6-dichloro-2-pyridinecarboxylic acid]
Visual Weed Control (%) CYPIR 11 DAA Obs ([4]; aminopyralid 8 g ae/ha alone): 3% | Visual Weed Control (%) CYPIR 11 DAA Obs ([4]; aminopyralid 24 g ae/ha alone): 23% | Visual Weed Control (%) CYPIR 18 DAA Obs ([4]; aminopyralid 8 g ae/ha alone): 8% | Visual Weed Control (%) CYPIR 18 DAA Obs ([4]; aminopyralid 16 g ae/ha alone): 25% | Visual Weed Control (%) LUDLI 11 DAA Obs ([5]; aminopyralid 8 g ae/ha alone): 73% | Visual Weed Control (%) ECLAL 11 DAA Obs ([6]; aminopyralid 8 g ae/ha alone): 76%

O=C(O)COc1nc(Cl)c(Cl)cc1Cl [Triclopyr, 2-[(3,5,6-trichloro-2-pyridinyl)oxy]acetic acid]
Visual Weed Control (%) CYPIR 11 DAA Obs ([4]; triclopyr 24 g ae/ha alone): 0% | Visual Weed Control (%) CYPIR 11 DAA Obs ([4]; triclopyr 72 g ae/ha alone): 1% | Visual Weed Control (%) CYPIR 18 DAA Obs ([4]; triclopyr 24 g ae/ha alone): 0% | Visual Weed Control (%) CYPIR 18 DAA Obs ([4]; triclopyr 48 g ae/ha alone): 6% | Visual Weed Control (%) LUDLI 11 DAA Obs ([5]; triclopyr 24 g ae/ha alone): 5% | Visual Weed Control (%) ECLAL 11 DAA Obs ([6]; triclopyr 24 g ae/ha alone): 6% | Visual Weed Control (%) URTDI 342 DAA Obs ([1]; triclopyr 240 g ae/ha alone): 33% | Visual Weed Control (%) TAROF 13 DAA Obs ([2]; TAROF, triclopyr 240 g ae/ha alone): 27% | Visual Weed Control (%) TAROF 13 DAA Obs ([2]; TAROF, triclopyr 960 g ae/ha alone): 38% | Visual Weed Control (%) TAROF 122 DAA Obs ([2]; triclopyr 240 g ae/ha alone): 0- % | Visual Weed Control (%) TAROF 178 DAA Obs ([2]; triclopyr 480 g ae/ha alone): 0% | Visual Weed Control (%) TAROFI 178 DAA Obs ([2]; triclopyr 960 g ae/ha alone): 47% | Visual Weed Control (%) TAROF 378 DAA Obs ([2]; 378 DAA, TAROF, triclopyr 240 g ae/ha alone): 10% | Visual Weed Control (%) TAROF 378 DAA Exp* ([2]; 378 DAA, TAROF, triclopyr 480 g ae/ha alone (value printed in Exp* column)): 30% | Visual Weed Control (%) RUMOB 13 DAA Obs ([3]; triclopyr 480 g ae/ha alone): 57%
